Tests used:
Assay in all cases: KINOMEscan competition binding
Details in all cases: compound 10.0 µM
NEK6 (human) = NEK6 (human) (UniProt Q9HC98)
MAPK9 (human) = MAPK9 (human) (UniProt P45984)
RIPK4 (human) = RIPK4 (human) (UniProt P57078)
MAP4K4 (human) = MAP4K4 (human) (UniProt O95819)
AURKC (human) = AURKC (human) (UniProt Q9UQB9)
PIM3 (human) = PIM3 (human) (UniProt Q86V86)
MAPK10 (human) = MAPK10 (human) (UniProt P53779)
NEK9 (human) = NEK9 (human) (UniProt Q8TD19)
TAOK1 (human) = TAOK1 (human) (UniProt Q7L7X3)
MAPK13 (human) = MAPK13 (human) (UniProt O15264)
EPHB1 (human) = EPHB1 (human) (UniProt P54762)
GSK3A (human) = GSK3A (human) (UniProt P49840)
PIK3C2B (human) = PIK3C2B (human) (UniProt O00750)
ACVR1 (human) = ACVR1 (human) (UniProt Q04771)
TXK (human) = TXK (human) (UniProt P42681)
MLTK (human) = MLTK (human) (UniProt Q9NYL2)
TSSK1B (human) = TSSK1B (human) (UniProt Q9BXA7)
CAMK1G (human) = CAMK1G (human) (UniProt Q96NX5)
RIOK2 (human) = RIOK2 (human) (UniProt Q9BVS4)
EPHA5 (human) = EPHA5 (human) (UniProt P54756)
WEE2 (human) = WEE2 (human) (UniProt P0C1S8)
SRPK3 (human) = SRPK3 (human) (UniProt Q9UPE1)
IGF1R (human) = IGF1R (human) (UniProt P08069)
MARK3 (human) = MARK3 (human) (UniProt P27448)
PTK6 (human) = PTK6 (human) (UniProt Q13882)
AKT1 (human) = AKT1 (human) (UniProt P31749)
MKNK2 (human) = MKNK2 (human) (UniProt Q9HBH9)
YES1 (human) = YES1 (human) (UniProt P07947)
ACVR2A (human) = ACVR2A (human) (UniProt P27037)
NTRK1 (human) = NTRK1 (human) (UniProt P04629)
CHEK2 (human) = CHEK2 (human) (UniProt O96017)
KDR (human) = KDR (human) (UniProt P35968)
ALK (human) = ALK (human) (UniProt Q9UM73)
RPS6KA6 KD1 (human) = RPS6KA6 KD1 (human) (UniProt Q9UK32)
[1] = tested on: KIT (human), P10721 [V559D]
CDC42BPG (human) = CDC42BPG (human) (UniProt Q6DT37)
PIK3CB (human) = PIK3CB (human) (UniProt P42338)
NTRK2 (human) = NTRK2 (human) (UniProt Q16620)
DYRK1B (human) = DYRK1B (human) (UniProt Q9Y463)
FGFR2 (human) = FGFR2 (human) (UniProt P21802)

Sequence of NEK6 (human) (Q9HC98 whole entry, looked up): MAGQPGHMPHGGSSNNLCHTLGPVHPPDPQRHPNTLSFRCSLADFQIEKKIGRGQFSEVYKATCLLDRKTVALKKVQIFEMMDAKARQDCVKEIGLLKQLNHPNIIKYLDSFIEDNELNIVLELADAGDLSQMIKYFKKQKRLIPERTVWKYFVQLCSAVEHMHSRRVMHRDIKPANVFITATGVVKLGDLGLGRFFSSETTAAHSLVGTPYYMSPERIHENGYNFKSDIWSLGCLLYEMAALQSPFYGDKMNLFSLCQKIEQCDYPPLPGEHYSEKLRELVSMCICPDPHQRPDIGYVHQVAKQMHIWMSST
Sequence of TXK (human) (P42681 whole entry, looked up): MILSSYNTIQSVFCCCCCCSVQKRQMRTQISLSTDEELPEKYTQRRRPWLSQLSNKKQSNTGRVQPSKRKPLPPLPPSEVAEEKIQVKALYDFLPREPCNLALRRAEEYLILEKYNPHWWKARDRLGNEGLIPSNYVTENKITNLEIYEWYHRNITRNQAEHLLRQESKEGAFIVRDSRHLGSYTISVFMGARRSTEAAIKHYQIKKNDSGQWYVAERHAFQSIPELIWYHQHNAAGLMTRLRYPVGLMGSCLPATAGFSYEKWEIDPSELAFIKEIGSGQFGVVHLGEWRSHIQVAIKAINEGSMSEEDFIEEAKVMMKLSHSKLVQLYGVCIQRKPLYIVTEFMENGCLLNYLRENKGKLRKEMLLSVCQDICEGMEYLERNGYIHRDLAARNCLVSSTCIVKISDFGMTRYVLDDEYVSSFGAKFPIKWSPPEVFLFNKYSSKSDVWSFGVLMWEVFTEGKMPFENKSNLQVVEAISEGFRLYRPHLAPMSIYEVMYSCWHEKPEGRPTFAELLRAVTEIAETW
Sequence of MLTK (human) (Q9NYL2 whole entry, looked up): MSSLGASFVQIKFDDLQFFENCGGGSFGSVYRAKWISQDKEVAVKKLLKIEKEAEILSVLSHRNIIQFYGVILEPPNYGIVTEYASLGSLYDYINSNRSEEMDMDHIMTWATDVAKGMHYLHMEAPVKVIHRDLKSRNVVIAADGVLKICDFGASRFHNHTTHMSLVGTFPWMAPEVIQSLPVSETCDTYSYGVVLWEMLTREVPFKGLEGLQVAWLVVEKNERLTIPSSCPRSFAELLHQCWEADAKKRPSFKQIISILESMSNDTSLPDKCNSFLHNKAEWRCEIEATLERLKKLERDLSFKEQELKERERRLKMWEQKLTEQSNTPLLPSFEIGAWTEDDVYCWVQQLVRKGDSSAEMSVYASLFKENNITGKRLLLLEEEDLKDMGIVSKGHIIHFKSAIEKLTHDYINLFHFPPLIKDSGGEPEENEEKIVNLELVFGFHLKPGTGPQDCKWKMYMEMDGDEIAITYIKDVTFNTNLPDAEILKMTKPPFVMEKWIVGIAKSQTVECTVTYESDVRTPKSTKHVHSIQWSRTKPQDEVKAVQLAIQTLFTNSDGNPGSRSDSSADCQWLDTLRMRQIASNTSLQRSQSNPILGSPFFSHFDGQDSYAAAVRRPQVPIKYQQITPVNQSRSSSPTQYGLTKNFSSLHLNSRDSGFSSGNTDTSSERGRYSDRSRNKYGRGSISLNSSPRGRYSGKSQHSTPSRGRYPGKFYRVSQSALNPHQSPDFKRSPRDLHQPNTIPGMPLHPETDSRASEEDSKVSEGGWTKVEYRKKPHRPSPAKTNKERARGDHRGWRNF
Sequence of ACVR2A (human) (P27037 whole entry, looked up): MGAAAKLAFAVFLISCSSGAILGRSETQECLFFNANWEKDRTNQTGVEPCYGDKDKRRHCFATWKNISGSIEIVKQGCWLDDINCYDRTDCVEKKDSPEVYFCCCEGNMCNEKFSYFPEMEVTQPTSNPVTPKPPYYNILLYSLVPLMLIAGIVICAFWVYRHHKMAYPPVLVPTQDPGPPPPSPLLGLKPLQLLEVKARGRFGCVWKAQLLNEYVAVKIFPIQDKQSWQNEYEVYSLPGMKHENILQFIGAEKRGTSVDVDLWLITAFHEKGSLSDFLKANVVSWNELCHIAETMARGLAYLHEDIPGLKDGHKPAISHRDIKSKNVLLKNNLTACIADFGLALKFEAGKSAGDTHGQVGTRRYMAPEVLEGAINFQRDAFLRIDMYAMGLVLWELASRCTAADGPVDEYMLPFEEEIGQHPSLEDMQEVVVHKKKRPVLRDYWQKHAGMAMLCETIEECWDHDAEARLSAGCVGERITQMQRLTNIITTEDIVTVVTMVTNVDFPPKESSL
Sequence of TSSK1B (human) (Q9BXA7 whole entry, looked up): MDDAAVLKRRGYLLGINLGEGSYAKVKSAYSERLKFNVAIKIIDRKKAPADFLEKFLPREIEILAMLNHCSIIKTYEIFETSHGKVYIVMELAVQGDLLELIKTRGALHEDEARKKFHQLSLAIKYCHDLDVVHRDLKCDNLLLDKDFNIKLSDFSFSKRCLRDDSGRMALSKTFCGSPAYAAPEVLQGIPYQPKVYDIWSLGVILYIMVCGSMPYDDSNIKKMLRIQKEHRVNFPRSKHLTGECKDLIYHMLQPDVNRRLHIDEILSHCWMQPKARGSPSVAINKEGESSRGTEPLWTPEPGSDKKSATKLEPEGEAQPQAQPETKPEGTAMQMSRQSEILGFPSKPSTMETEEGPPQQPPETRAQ
Sequence of MAPK10 (human) (P53779 whole entry, looked up): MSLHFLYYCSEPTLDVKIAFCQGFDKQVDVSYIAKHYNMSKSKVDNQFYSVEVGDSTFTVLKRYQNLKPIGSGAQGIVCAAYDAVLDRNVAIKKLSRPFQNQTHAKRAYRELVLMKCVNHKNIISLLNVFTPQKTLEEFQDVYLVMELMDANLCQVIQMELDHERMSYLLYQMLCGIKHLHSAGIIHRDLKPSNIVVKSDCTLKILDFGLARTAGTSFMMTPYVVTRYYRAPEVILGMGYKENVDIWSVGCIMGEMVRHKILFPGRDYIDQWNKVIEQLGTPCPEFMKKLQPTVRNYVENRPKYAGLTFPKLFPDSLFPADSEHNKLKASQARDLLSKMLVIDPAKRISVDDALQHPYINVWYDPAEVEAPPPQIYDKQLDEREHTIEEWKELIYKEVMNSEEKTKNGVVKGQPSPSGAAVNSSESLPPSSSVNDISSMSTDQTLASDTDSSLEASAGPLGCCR
Sequence of CAMK1G (human) (Q96NX5 whole entry, looked up): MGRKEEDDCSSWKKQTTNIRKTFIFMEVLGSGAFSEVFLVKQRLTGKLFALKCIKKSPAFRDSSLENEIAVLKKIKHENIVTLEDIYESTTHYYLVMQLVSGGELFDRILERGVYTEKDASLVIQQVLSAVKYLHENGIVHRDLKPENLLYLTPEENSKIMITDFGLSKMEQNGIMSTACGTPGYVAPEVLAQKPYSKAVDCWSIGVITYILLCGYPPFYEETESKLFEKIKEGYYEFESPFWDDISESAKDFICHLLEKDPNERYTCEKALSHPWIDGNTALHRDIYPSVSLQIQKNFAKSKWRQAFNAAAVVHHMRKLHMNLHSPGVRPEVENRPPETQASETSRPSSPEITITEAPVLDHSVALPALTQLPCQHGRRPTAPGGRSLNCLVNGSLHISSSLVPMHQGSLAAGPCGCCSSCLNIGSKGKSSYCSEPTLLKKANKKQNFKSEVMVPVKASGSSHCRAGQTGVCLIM
Sequence of YES1 (human) (P07947 whole entry, looked up): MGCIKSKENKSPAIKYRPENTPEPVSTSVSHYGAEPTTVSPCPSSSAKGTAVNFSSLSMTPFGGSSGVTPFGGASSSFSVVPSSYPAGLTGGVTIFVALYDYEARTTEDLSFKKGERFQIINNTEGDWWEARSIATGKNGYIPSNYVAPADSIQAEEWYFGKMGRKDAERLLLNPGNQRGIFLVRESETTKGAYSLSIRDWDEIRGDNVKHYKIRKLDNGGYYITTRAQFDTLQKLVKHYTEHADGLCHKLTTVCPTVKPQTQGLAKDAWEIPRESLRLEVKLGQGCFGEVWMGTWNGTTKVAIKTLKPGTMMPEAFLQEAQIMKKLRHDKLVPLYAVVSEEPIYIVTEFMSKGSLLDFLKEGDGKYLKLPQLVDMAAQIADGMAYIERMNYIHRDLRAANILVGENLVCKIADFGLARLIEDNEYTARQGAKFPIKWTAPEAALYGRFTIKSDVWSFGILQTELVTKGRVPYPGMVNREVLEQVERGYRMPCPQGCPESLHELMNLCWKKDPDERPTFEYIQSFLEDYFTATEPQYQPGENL
Sequence of WEE2 (human) (P0C1S8 whole entry, looked up): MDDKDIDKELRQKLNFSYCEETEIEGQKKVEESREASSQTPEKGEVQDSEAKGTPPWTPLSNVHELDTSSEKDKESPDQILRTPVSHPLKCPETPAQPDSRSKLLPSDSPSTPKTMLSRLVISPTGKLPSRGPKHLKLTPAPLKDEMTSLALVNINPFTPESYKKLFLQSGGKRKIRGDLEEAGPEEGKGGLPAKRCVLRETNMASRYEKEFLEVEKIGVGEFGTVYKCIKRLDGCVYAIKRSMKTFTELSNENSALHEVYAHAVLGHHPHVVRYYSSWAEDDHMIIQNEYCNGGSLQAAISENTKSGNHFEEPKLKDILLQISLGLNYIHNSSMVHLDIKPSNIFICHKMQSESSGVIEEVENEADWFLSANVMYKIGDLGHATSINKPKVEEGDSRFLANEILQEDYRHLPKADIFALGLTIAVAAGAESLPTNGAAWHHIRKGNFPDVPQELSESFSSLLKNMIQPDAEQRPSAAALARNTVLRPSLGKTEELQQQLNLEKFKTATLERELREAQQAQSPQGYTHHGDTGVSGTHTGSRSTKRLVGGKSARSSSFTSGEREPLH
Sequence of AURKC (human) (Q9UQB9 whole entry, looked up): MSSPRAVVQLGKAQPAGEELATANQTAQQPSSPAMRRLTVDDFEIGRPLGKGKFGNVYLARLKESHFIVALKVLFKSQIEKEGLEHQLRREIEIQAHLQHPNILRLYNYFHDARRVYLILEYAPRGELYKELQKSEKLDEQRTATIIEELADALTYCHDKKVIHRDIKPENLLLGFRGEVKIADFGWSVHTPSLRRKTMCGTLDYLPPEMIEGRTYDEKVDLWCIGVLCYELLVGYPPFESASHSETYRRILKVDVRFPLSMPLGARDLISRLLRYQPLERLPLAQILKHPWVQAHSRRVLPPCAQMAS

Cc1cc([C@@H](C)Nc2ccccc2C(=O)O)c2nc(N3CCOCC3)cc(=O)n2c1
kinase still bound, per cent of control (NEK6 (human)): 100% | kinase still bound, per cent of control (MAPK9 (human)): 66% | kinase still bound, per cent of control (RIPK4 (human)): 99% | kinase still bound, per cent of control (MAP4K4 (human)): 97% | kinase still bound, per cent of control (AURKC (human)): 93% | kinase still bound, per cent of control (PIM3 (human)): 100% | kinase still bound, per cent of control (MAPK10 (human)): 82% | kinase still bound, per cent of control (NEK9 (human)): 100% | kinase still bound, per cent of control (TAOK1 (human)): 59% | kinase still bound, per cent of control (MAPK13 (human)): 87% | kinase still bound, per cent of control (EPHB1 (human)): 98% | kinase still bound, per cent of control (GSK3A (human)): 100% | kinase still bound, per cent of control (PIK3C2B (human)): 0.35% | kinase still bound, per cent of control (ACVR1 (human)): 98% | kinase still bound, per cent of control (TXK (human)): 90% | kinase still bound, per cent of control (MLTK (human)): 100% | kinase still bound, per cent of control (TSSK1B (human)): 100% | kinase still bound, per cent of control (CAMK1G (human)): 91% | kinase still bound, per cent of control (RIOK2 (human)): 54% | kinase still bound, per cent of control (EPHA5 (human)): 99% | kinase still bound, per cent of control (WEE2 (human)): 100% | kinase still bound, per cent of control (SRPK3 (human)): 100% | kinase still bound, per cent of control (IGF1R (human)): 100% | kinase still bound, per cent of control (MARK3 (human)): 89% | kinase still bound, per cent of control (PTK6 (human)): 75% | kinase still bound, per cent of control (AKT1 (human)): 100% | kinase still bound, per cent of control (MKNK2 (human)): 92% | kinase still bound, per cent of control (YES1 (human)): 100% | kinase still bound, per cent of control (ACVR2A (human)): 94% | kinase still bound, per cent of control (NTRK1 (human)): 88% | kinase still bound, per cent of control (CHEK2 (human)): 100% | kinase still bound, per cent of control (KDR (human)): 100% | kinase still bound, per cent of control (ALK (human)): 100% | kinase still bound, per cent of control (RPS6KA6 KD1 (human)): 71% | kinase still bound, per cent of control [1]: 91% | kinase still bound, per cent of control (CDC42BPG (human)): 100%

CCC(=O)N1CCN(c2ccc(-n3c(=O)ccc4cnc5ccc(-c6cnc7ccccc7c6)cc5c43)cc2C(F)(F)F)CC1
kinase still bound, per cent of control (NEK6 (human)): 99% | kinase still bound, per cent of control (MAPK9 (human)): 40% | kinase still bound, per cent of control (PIK3CB (human)): 65% | kinase still bound, per cent of control (RIPK4 (human)): 100% | kinase still bound, per cent of control (MAP4K4 (human)): 5.2% | kinase still bound, per cent of control (AURKC (human)): 91% | kinase still bound, per cent of control (PIM3 (human)): 96% | kinase still bound, per cent of control (MAPK10 (human)): 31% | kinase still bound, per cent of control (NEK9 (human)): 100% | kinase still bound, per cent of control (NTRK2 (human)): 81% | kinase still bound, per cent of control (TAOK1 (human)): 58% | kinase still bound, per cent of control (MAPK13 (human)): 39% | kinase still bound, per cent of control (EPHB1 (human)): 100% | kinase still bound, per cent of control (GSK3A (human)): 93% | kinase still bound, per cent of control (PIK3C2B (human)): 25% | kinase still bound, per cent of control (ACVR1 (human)): 28% | kinase still bound, per cent of control (TXK (human)): 54% | kinase still bound, per cent of control (MLTK (human)): 22% | kinase still bound, per cent of control (TSSK1B (human)): 100% | kinase still bound, per cent of control (CAMK1G (human)): 74% | kinase still bound, per cent of control (DYRK1B (human)): 87% | kinase still bound, per cent of control (RIOK2 (human)): 24% | kinase still bound, per cent of control (EPHA5 (human)): 100% | kinase still bound, per cent of control (WEE2 (human)): 100% | kinase still bound, per cent of control (IGF1R (human)): 94% | kinase still bound, per cent of control (MARK3 (human)): 100% | kinase still bound, per cent of control (PTK6 (human)): 51% | kinase still bound, per cent of control (AKT1 (human)): 91% | kinase still bound, per cent of control (MKNK2 (human)): 54% | kinase still bound, per cent of control (YES1 (human)): 74% | kinase still bound, per cent of control (ACVR2A (human)): 47% | kinase still bound, per cent of control (NTRK1 (human)): 64% | kinase still bound, per cent of control (CHEK2 (human)): 100% | kinase still bound, per cent of control (KDR (human)): 65% | kinase still bound, per cent of control (ALK (human)): 80% | kinase still bound, per cent of control (FGFR2 (human)): 55% | kinase still bound, per cent of control (RPS6KA6 KD1 (human)): 66% | kinase still bound, per cent of control [1]: 50% | kinase still bound, per cent of control (CDC42BPG (human)): 1.6%

CCOc1cc2ncc(C#N)c(Nc3ccc(OCc4ccccn4)c(Cl)c3)c2cc1NC(=O)/C=C/CN(C)C
kinase still bound, per cent of control (NEK6 (human)): 88% | kinase still bound, per cent of control (MAPK9 (human)): 52% | kinase still bound, per cent of control (PIK3CB (human)): 100% | kinase still bound, per cent of control (RIPK4 (human)): 77% | kinase still bound, per cent of control (MAP4K4 (human)): 6.2% | kinase still bound, per cent of control (AURKC (human)): 95% | kinase still bound, per cent of control (PIM3 (human)): 100% | kinase still bound, per cent of control (MAPK10 (human)): 27% | kinase still bound, per cent of control (NEK9 (human)): 100% | kinase still bound, per cent of control (NTRK2 (human)): 95% | kinase still bound, per cent of control (TAOK1 (human)): 83% | kinase still bound, per cent of control (MAPK13 (human)): 99% | kinase still bound, per cent of control (EPHB1 (human)): 98% | kinase still bound, per cent of control (GSK3A (human)): 97% | kinase still bound, per cent of control (PIK3C2B (human)): 100% | kinase still bound, per cent of control (ACVR1 (human)): 100% | kinase still bound, per cent of control (TXK (human)): 86% | kinase still bound, per cent of control (MLTK (human)): 70% | kinase still bound, per cent of control (TSSK1B (human)): 100% | kinase still bound, per cent of control (CAMK1G (human)): 100% | kinase still bound, per cent of control (DYRK1B (human)): 99% | kinase still bound, per cent of control (RIOK2 (human)): 53% | kinase still bound, per cent of control (EPHA5 (human)): 100% | kinase still bound, per cent of control (WEE2 (human)): 98% | kinase still bound, per cent of control (SRPK3 (human)): 77% | kinase still bound, per cent of control (IGF1R (human)): 100% | kinase still bound, per cent of control (PTK6 (human)): 100% | kinase still bound, per cent of control (AKT1 (human)): 98% | kinase still bound, per cent of control (MKNK2 (human)): 99% | kinase still bound, per cent of control (YES1 (human)): 26% | kinase still bound, per cent of control (ACVR2A (human)): 100% | kinase still bound, per cent of control (NTRK1 (human)): 77% | kinase still bound, per cent of control (CHEK2 (human)): 79% | kinase still bound, per cent of control (KDR (human)): 94% | kinase still bound, per cent of control (ALK (human)): 100% | kinase still bound, per cent of control (FGFR2 (human)): 96% | kinase still bound, per cent of control (RPS6KA6 KD1 (human)): 86% | kinase still bound, per cent of control [1]: 100% | kinase still bound, per cent of control (CDC42BPG (human)): 100%

O=C(NOC[C@H](O)CO)c1ccc(F)c(F)c1Nc1ccc(I)cc1F
kinase still bound, per cent of control (NEK6 (human)): 100% | kinase still bound, per cent of control (MAPK9 (human)): 88% | kinase still bound, per cent of control (PIK3CB (human)): 100% | kinase still bound, per cent of control (RIPK4 (human)): 100% | kinase still bound, per cent of control (MAP4K4 (human)): 69% | kinase still bound, per cent of control (AURKC (human)): 45% | kinase still bound, per cent of control (PIM3 (human)): 100% | kinase still bound, per cent of control (MAPK10 (human)): 90% | kinase still bound, per cent of control (NEK9 (human)): 82% | kinase still bound, per cent of control (NTRK2 (human)): 100% | kinase still bound, per cent of control (TAOK1 (human)): 100% | kinase still bound, per cent of control (MAPK13 (human)): 6.1% | kinase still bound, per cent of control (EPHB1 (human)): 100% | kinase still bound, per cent of control (GSK3A (human)): 90% | kinase still bound, per cent of control (PIK3C2B (human)): 100% | kinase still bound, per cent of control (ACVR1 (human)): 76% | kinase still bound, per cent of control (TXK (human)): 100% | kinase still bound, per cent of control (MLTK (human)): 88% | kinase still bound, per cent of control (TSSK1B (human)): 100% | kinase still bound, per cent of control (CAMK1G (human)): 100% | kinase still bound, per cent of control (DYRK1B (human)): 98% | kinase still bound, per cent of control (EPHA5 (human)): 96% | kinase still bound, per cent of control (WEE2 (human)): 77% | kinase still bound, per cent of control (SRPK3 (human)): 100% | kinase still bound, per cent of control (IGF1R (human)): 87% | kinase still bound, per cent of control (MARK3 (human)): 91% | kinase still bound, per cent of control (PTK6 (human)): 46% | kinase still bound, per cent of control (AKT1 (human)): 81% | kinase still bound, per cent of control (MKNK2 (human)): 100% | kinase still bound, per cent of control (YES1 (human)): 73% | kinase still bound, per cent of control (ACVR2A (human)): 80% | kinase still bound, per cent of control (NTRK1 (human)): 100% | kinase still bound, per cent of control (CHEK2 (human)): 86% | kinase still bound, per cent of control (KDR (human)): 84% | kinase still bound, per cent of control (ALK (human)): 100% | kinase still bound, per cent of control (FGFR2 (human)): 100% | kinase still bound, per cent of control (RPS6KA6 KD1 (human)): 75% | kinase still bound, per cent of control [1]: 74% | kinase still bound, per cent of control (CDC42BPG (human)): 85%
